ChEMBL document CHEMBL1201862, “PubChem BioAssay data set” (2004)
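Cells were grown in 96-well plates and exposed to each compound for 48 hours at five concentrations; endpoints were interpolated linearly between bracketing concentrations, or set to the highest concentration if not reached. GI50 = concentration required for 50% inhibition of growth.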 Activity calls are given as the source filed them. Rule as the data show it: active = GI50 up to about 1.1 µM and inactive = higher.

Columns and labels:
Test in all cases: NCI tumour cell line growth inhibition, 48 h
A549 = tested on: A549
OVCAR-4 = tested on: OVCAR-4
HCT-116 = tested on: HCT-116
SN12C = tested on: SN12C
NCI-H23 = tested on: NCI-H23
MOLT-4 = tested on: MOLT-4
KM12 = tested on: KM12
SNB-19 = tested on: SNB-19
PC-3 = tested on: PC-3
CAKI-1 = tested on: CAKI-1
HCC 2998 = tested on: HCC 2998
CCRF-CEM = tested on: CCRF-CEM
SNB-75 = tested on: SNB-75
MDA-MB-435 = tested on: MDA-MB-435
M14 = tested on: M14
HCT-15 = tested on: HCT-15
OVCAR-3 = tested on: OVCAR-3
HT-29 = tested on: HT-29
786-0 = tested on: 786-0
T47D = tested on: T47D
NCI-H522 = tested on: NCI-H522
NCI-H226 = tested on: NCI-H226
OVCAR-5 = tested on: OVCAR-5
SF-539 = tested on: SF-539
NCI-H460 = tested on: NCI-H460
SF-295 = tested on: SF-295
K562 = tested on: K562
HOP-92 = tested on: HOP-92
SW-620 = tested on: SW-620
MDA-N = tested on: MDA-N
NCI/ADR-RES = tested on: NCI/ADR-RES
Hs-578T = tested on: Hs-578T
UACC-257 = tested on: UACC-257
SK-MEL-2 = tested on: SK-MEL-2
IGROV-1 = tested on: IGROV-1
RXF 393 = tested on: RXF 393
TK-10 = tested on: TK-10
DU-145 = tested on: DU-145
COLO 205 = tested on: COLO 205
Malme-3M = tested on: Malme-3M
OVCAR-8 = tested on: OVCAR-8
ACHN = tested on: ACHN
RPMI-8226 = tested on: RPMI-8226
HOP-62 = tested on: HOP-62
SK-MEL-5 = tested on: SK-MEL-5
UO-31 = tested on: UO-31
U-251 = tested on: U-251
MDA-MB-231 = tested on: MDA-MB-231
A498 = tested on: A498
MCF7 = tested on: MCF7
SF-268 = tested on: SF-268
LOX IMVI = tested on: LOX IMVI
EKVX = tested on: EKVX
HL-60 = tested on: HL-60
UACC-62 = tested on: UACC-62
SK-MEL-28 = tested on: SK-MEL-28
SK-OV-3 = tested on: SK-OV-3
BT-549 = tested on: BT-549
SR = tested on: SR

SMILES: N#CC1=C(N)OC2=C(CCCc3ccc([N+](=O)[O-])cc32)C1c1ccc(Cl)cc1 (stereo not drawn)
- GI50 (A549): 6.7 µM (inactive)
- GI50 (OVCAR-4): 3.3 µM (inactive)
- GI50 (HCT-116): 3.3 µM (inactive)
- GI50 (SN12C): 2.74 µM (inactive)
- GI50 (NCI-H23): 5.11 µM (inactive)
- GI50 (MOLT-4): 3.21 µM (inactive)
- GI50 (KM12): 5.58 µM (inactive)
- GI50 (SNB-19): 32.9 µM (inactive)
- GI50 (PC-3): 3.94 µM (inactive)
- GI50 (CAKI-1): 4.11 µM (inactive)
- GI50 (HCC 2998): 8.02 µM (inactive)
- GI50 (CCRF-CEM): 4.39 µM (inactive)
- GI50 (SNB-75): 11.8 µM (inactive)
- GI50 (MDA-MB-435): 5.92 µM (inactive)
- GI50 (M14): 16.4 µM (inactive)
- GI50 (HCT-15): 3.12 µM
- GI50 (OVCAR-3): 6.34 µM (inactive)
- GI50 (HT-29): 4.1 µM (inactive)
- GI50 (786-0): 4.84 µM (inactive)
- GI50 (T47D): 3.78 µM (inactive)
- GI50 (NCI-H522): 6.41 µM (inactive)
- GI50 (NCI-H226): 17 µM (inactive)
- GI50 (OVCAR-5): 16.6 µM (inactive)
- GI50 (SF-539): 8.97 µM (inactive)
- GI50 (NCI-H460): 3.83 µM (inactive)
- GI50 (SF-295): 11 µM (inactive)
- GI50 (K562): 3.88 µM (inactive)
- GI50 (HOP-92): 37 µM (inactive)
- GI50 (SW-620): 9.35 µM (inactive)
- GI50 (MDA-N): 6.7 µM (inactive)
- GI50 (NCI/ADR-RES): 6.28 µM (inactive)
- GI50 (Hs-578T): 17.1 µM (inactive)
- GI50 (UACC-257): 6.08 µM (inactive)
- GI50 (SK-MEL-2): 13.4 µM (inactive)
- GI50 (IGROV-1): 8.71 µM (inactive)
- GI50 (RXF 393): 4.68 µM (inactive)
- GI50 (TK-10): 10.6 µM (inactive)
- GI50 (DU-145): 8.51 µM (inactive)
- GI50 (COLO 205): 5.35 µM (inactive)
- GI50 (Malme-3M): 11.3 µM (inactive)
- GI50 (OVCAR-8): 6.58 µM (inactive)
- GI50 (ACHN): 4.59 µM (inactive)
- GI50 (RPMI-8226): 4.33 µM (inactive)
- GI50 (HOP-62): 19.7 µM (inactive)
- GI50 (SK-MEL-5): 4.38 µM (inactive)
- GI50 (UO-31): 3.3 µM (inactive)
- GI50 (U-251): 4.57 µM (inactive)
- GI50 (MDA-MB-231): 7.91 µM (inactive)
- GI50 (A498): 5.73 µM (inactive)
- GI50 (MCF7): 4.03 µM (inactive)
- GI50 (SF-268): 8.43 µM (inactive)
- GI50 (LOX IMVI): 4.6 µM (inactive)
- GI50 (EKVX): 4.43 µM (inactive)
- GI50 (HL-60): 1.89 µM (inactive)
- GI50 (UACC-62): 5.02 µM (inactive)
- GI50 (SK-MEL-28): 25.8 µM (inactive)
- GI50 (SK-OV-3): 13.7 µM (inactive)
- GI50 (BT-549): 17.4 µM (inactive)

SMILES: CN1Cc2ccccc2S(=O)(=O)n2cccc2C1=O
- GI50 (A549): > 100 µM (inactive)
- GI50 (OVCAR-4): > 100 µM (inactive)
- GI50 (HCT-116): > 100 µM (inactive)
- GI50 (SN12C): > 100 µM (inactive)
- GI50 (MOLT-4): > 100 µM (inactive)
- GI50 (KM12): > 100 µM (inactive)
- GI50 (PC-3): > 100 µM (inactive)
- GI50 (CAKI-1): > 100 µM (inactive)
- GI50 (CCRF-CEM): > 100 µM (inactive)
- GI50 (SNB-75): > 100 µM (inactive)
- GI50 (MDA-MB-435): > 100 µM (inactive)
- GI50 (HCT-15): > 100 µM
- GI50 (OVCAR-3): > 100 µM (inactive)
- GI50 (786-0): > 100 µM (inactive)
- GI50 (T47D): 32.8 µM (inactive)
- GI50 (NCI-H522): > 100 µM (inactive)
- GI50 (OVCAR-5): > 100 µM (inactive)
- GI50 (SF-539): > 100 µM (inactive)
- GI50 (NCI-H460): > 100 µM (inactive)
- GI50 (SF-295): > 100 µM (inactive)
- GI50 (K562): > 100 µM (inactive)
- GI50 (HOP-92): > 100 µM (inactive)
- GI50 (SW-620): > 100 µM (inactive)
- GI50 (MDA-N): > 100 µM (inactive)
- GI50 (Hs-578T): > 100 µM (inactive)
- GI50 (UACC-257): > 100 µM (inactive)
- GI50 (SK-MEL-2): > 100 µM (inactive)
- GI50 (IGROV-1): > 100 µM (inactive)
- GI50 (RXF 393): > 100 µM (inactive)
- GI50 (TK-10): > 100 µM (inactive)
- GI50 (DU-145): > 100 µM (inactive)
- GI50 (COLO 205): > 100 µM (inactive)
- GI50 (SR): 8.41 µM (inactive)
- GI50 (ACHN): > 100 µM (inactive)
- GI50 (RPMI-8226): > 100 µM (inactive)
- GI50 (HOP-62): > 100 µM (inactive)
- GI50 (SK-MEL-5): > 100 µM (inactive)
- GI50 (UO-31): > 100 µM (inactive)
- GI50 (U-251): > 100 µM (inactive)
- GI50 (MDA-MB-231): > 100 µM (inactive)
- GI50 (A498): > 100 µM (inactive)
- GI50 (MCF7): > 100 µM (inactive)
- GI50 (LOX IMVI): > 100 µM (inactive)
- GI50 (EKVX): > 100 µM (inactive)
- GI50 (HL-60): > 100 µM (inactive)
- GI50 (UACC-62): > 100 µM (inactive)
- GI50 (SK-MEL-28): > 100 µM (inactive)
- GI50 (SK-OV-3): > 100 µM (inactive)
- GI50 (BT-549): > 100 µM (inactive)

SMILES: O=C1Nc2ccccc2C(=O)/C1=C/NC(=S)NC1CCCCC1
- GI50 (A549): > 100 µM (inactive)
- GI50 (OVCAR-4): > 100 µM (inactive)
- GI50 (HCT-116): > 100 µM (inactive)
- GI50 (SN12C): > 100 µM (inactive)
- GI50 (NCI-H23): > 100 µM (inactive)
- GI50 (MOLT-4): > 100 µM (inactive)
- GI50 (KM12): > 100 µM (inactive)
- GI50 (SNB-19): > 100 µM (inactive)
- GI50 (PC-3): > 100 µM (inactive)
- GI50 (CAKI-1): > 100 µM (inactive)
- GI50 (HCC 2998): > 100 µM (inactive)
- GI50 (CCRF-CEM): > 100 µM (inactive)
- GI50 (SNB-75): > 100 µM (inactive)
- GI50 (MDA-MB-435): > 100 µM (inactive)
- GI50 (M14): > 100 µM (inactive)
- GI50 (HCT-15): > 100 µM
- GI50 (OVCAR-3): > 100 µM (inactive)
- GI50 (HT-29): > 100 µM (inactive)
- GI50 (786-0): > 100 µM (inactive)
- GI50 (T47D): > 100 µM (inactive)
- GI50 (NCI-H522): > 100 µM (inactive)
- GI50 (NCI-H226): > 100 µM (inactive)
- GI50 (OVCAR-5): > 100 µM (inactive)
- GI50 (SF-539): > 100 µM (inactive)
- GI50 (NCI-H460): > 100 µM (inactive)
- GI50 (SF-295): > 100 µM (inactive)
- GI50 (K562): > 100 µM (inactive)
- GI50 (HOP-92): > 100 µM (inactive)
- GI50 (SW-620): > 100 µM (inactive)
- GI50 (MDA-N): > 100 µM (inactive)
- GI50 (NCI/ADR-RES): > 100 µM (inactive)
- GI50 (Hs-578T): > 100 µM (inactive)
- GI50 (UACC-257): > 100 µM (inactive)
- GI50 (SK-MEL-2): > 100 µM (inactive)
- GI50 (IGROV-1): > 100 µM (inactive)
- GI50 (RXF 393): > 100 µM (inactive)
- GI50 (TK-10): > 100 µM (inactive)
- GI50 (DU-145): > 100 µM (inactive)
- GI50 (COLO 205): > 100 µM (inactive)
- GI50 (OVCAR-8): > 100 µM (inactive)
- GI50 (ACHN): > 100 µM (inactive)
- GI50 (RPMI-8226): > 100 µM (inactive)
- GI50 (HOP-62): > 100 µM (inactive)
- GI50 (SK-MEL-5): > 100 µM (inactive)
- GI50 (UO-31): > 100 µM (inactive)
- GI50 (U-251): > 100 µM (inactive)
- GI50 (MDA-MB-231): > 100 µM (inactive)
- GI50 (A498): > 100 µM (inactive)
- GI50 (MCF7): > 100 µM (inactive)
- GI50 (SF-268): > 100 µM (inactive)
- GI50 (LOX IMVI): > 100 µM (inactive)
- GI50 (EKVX): > 100 µM (inactive)
- GI50 (HL-60): > 100 µM (inactive)
- GI50 (UACC-62): > 100 µM (inactive)
- GI50 (SK-OV-3): > 100 µM (inactive)
- GI50 (BT-549): > 100 µM (inactive)
